Drawing on US8026243B2, “[4,5′]Bipyrimidinyl-6,4′-diamine derivatives as protein kinase inhibitors” (Novartis AG, priority 2006, dated 2011), this text covers GI50 for twelve molecules.

As usually defined, the GI50 is the concentration that inhibits growth by half. Low values mean greater sensitivity of the cells, high ones lower sensitivity of the cells.

A value given as a limit tells only on which side of the number the result lay.

The experiment has as its target T1, Ba/F3-TEL-FGFR3 cells (Homo sapiens, UniProt P22607).
T1 construct: fused on or other part: The N-terminal oligomerising part of TEL (ETV6) is fused before the intracellular kinase part of FGFR3; P41212 (Transcription factor ETV6)
The experiment in a line: FGFR3 cellular assay: proliferation of transformed Ba/F3-TEL-FGFR3 cells (AlamarBlue). The experiment is classed as cell-based. As to conditions: 48 hours incubation, class symbols. The procedure:
Compounds of the invention are tested for their ability to inhibit transformed Ba/F3-TEL-FGFR3 cells proliferation, which is dependent on FGFR3 cellular kinase activity. Ba/F3-TEL-FGFR3 are cultured up to 800,000 cells/mL in suspension, with RPMI 1640 supplemented with 10% fetal bovine serum as the culture medium. Cells are dispensed into 384-well format plate at 5000 cell/well in […], culture medium. Compounds of the invention are dissolved and diluted in dimethylsulfoxide (DMSO). Twelve points 1:3 serial dilutions are made into DMSO to create concentrations gradient ranging typically from 10 mM to 0.05 μM. Cells are added with 50 nL of diluted compounds and incubated for 48 hours in cell culture incubator. AlamarBlue® (TREK Diagnostic Systems), which can be used to monitor the reducing environment created by proliferating cells, are added to cells at final concentration of 10%. After additional four hours of incubation in a 37° C. cell culture incubator, fluorescence signals from reduced AlamarBlue® (Excitation at 530 nm, Emission at 580 nm) are quantified on Analyst GT (Molecular Devices Corp.). IC50 values are calculated by linear regression analysis of the percentage inhibition of each compound at 12 concentrations.
A general note: Alamar Blue is a resazurin reagent that responds to reducing activity.

T1 sequence (P22607 whole entry, change not shown, the tested form may be a part): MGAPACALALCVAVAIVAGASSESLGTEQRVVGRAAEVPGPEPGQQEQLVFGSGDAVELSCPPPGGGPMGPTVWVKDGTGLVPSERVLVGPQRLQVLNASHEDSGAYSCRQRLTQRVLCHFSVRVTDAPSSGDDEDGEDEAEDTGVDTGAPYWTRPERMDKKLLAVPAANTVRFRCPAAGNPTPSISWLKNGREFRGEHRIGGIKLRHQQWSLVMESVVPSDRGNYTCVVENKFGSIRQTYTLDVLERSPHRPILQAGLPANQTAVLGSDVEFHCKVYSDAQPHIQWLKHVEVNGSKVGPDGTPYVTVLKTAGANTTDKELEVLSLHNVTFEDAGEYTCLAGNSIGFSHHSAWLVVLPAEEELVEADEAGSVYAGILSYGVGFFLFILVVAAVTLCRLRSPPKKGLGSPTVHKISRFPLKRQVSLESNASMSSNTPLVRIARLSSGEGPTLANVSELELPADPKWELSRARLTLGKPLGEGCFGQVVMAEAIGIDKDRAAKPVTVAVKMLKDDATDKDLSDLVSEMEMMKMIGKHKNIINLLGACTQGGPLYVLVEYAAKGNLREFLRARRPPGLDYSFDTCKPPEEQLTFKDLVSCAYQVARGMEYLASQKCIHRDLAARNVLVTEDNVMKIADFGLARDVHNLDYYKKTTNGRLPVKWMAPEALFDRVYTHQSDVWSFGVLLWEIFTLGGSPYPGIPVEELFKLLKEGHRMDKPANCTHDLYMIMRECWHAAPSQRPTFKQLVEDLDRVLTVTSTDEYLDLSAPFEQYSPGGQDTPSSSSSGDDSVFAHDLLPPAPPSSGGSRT

Turning to `COc1cc(OC)c(Cl)c(Nc2ncncc2-c2cc(NCCN3CCN(C)CC3)ncn2)c1Cl` [Compound 14, N4′-(2,6-Dichloro-3,5-dimethoxy-phenyl)-N6-[2-(4-methyl-piperazin-1-yl)-ethyl]-[4,5′]bipyrimidinyl-6,4′-diamine], the GI50 fell in the range of 250 to 500 nM.

Molecule `COc1cc(OC)c(Cl)c(Nc2ncncc2-c2cc(Nc3ccc(CN4CCN(C(N)=O)CC4)cn3)ncn2)c1Cl` [Compound 15, 4-{6-[4′-(2,6-Dichloro-3,5-dimethoxy-phenylamino)-[4,5′]bipyrimidinyl-6-ylamino]-pyridin-3-ylmethyl}-piperazine-1-carboxylic acid amide] yielded a GI50 of less than 100 nM.

`COc1cc(OC)c(Cl)c(Nc2ncncc2-c2cc(Nc3ccc(CN4CCN(C(C)=O)CC4)cn3)ncn2)c1Cl` [Compound 16, 1-(4-{6-[4′-(2,6-Dichloro-3,5-dimethoxy-phenylamino)-[4,5′]bipyrimidinyl-6-ylamino]-pyridin-3-ylmethyl}-piperazin-1-yl)-ethanone] had a concentration for 50% growth inhibition (GI50) of less than 100 nM.

Take `CCN(CC)CCOc1ccc(Nc2cc(-c3cncnc3Nc3c(Cl)c(OC)cc(OC)c3Cl)ncn2)cc1` [Compound 17, N4′-(2,6-Dichloro-3,5-dimethoxy-phenyl)-N6-[4-(2-diethylamino-ethoxy)-phenyl]-[4,5′]bipyrimidinyl-6,4′-diamine]: the GI50 is less than 100 nM.

`COc1cc(OC)c(Cl)c(Nc2ncncc2-c2cc(Nc3ccc(CCN4CCOCC4)cn3)ncn2)c1Cl` [Compound 18, N4′-(2,6-Dichloro-3,5-dimethoxy-phenyl)-N6-[5-(2-morpholin-4-yl-ethyl)-pyridin-2-yl]-[4,5′]bipyrimidinyl-6,4′-diamine] yielded a GI50 of less than 100 nM.

For `COc1cc(OC)c(Cl)c(Nc2ncncc2-c2cc(Nc3ccc(CN4CCN(C(=O)N(C)C)CC4)cn3)ncn2)c1Cl` [Compound 19, 4-{6-[4′-(2,6-Dichloro-3,5-dimethoxy-phenylamino)-[4,5′]bipyrimidinyl-6-ylamino]-pyridin-3-ylmethyl}-piperazine-1-carboxylic acid dimethyl-amide], the GI50 was less than 100 nM.

`CNC(=O)N1CCN(Cc2ccc(Nc3cc(-c4cncnc4Nc4c(Cl)c(OC)cc(OC)c4Cl)ncn3)nc2)CC1` [Compound 20, 4-{6-[4′-(2,6-Dichloro-3,5-dimethoxy-phenylamino)-[4,5′]bipyrimidinyl-6-ylamino]-pyridin-3-ylmethyl}-piperazine-1-carboxylic acid methylamide] gave a GI50 of less than 100 nM.

`COc1cc(OC)c(Cl)c(Nc2ncncc2-c2cc(Nc3cncc(CN4CCOCC4)c3)ncn2)c1Cl` [Compound 21, N4′-(2,6-Dichloro-3,5-dimethoxy-phenyl)-N6-(5-morpholin-4-ylmethyl-pyridin-3-yl)-[4,5′]bipyrimidinyl-6,4′-diamine] came in with a GI50 of 250 to 500 nM.

`COc1cc(OC)c(Cl)c(Nc2ncncc2-c2cc(Nc3ccc(CN4CCCCC4)cn3)ncn2)c1Cl` [Compound 22, N4′-(2,6-Dichloro-3,5-dimethoxy-phenyl)-N6-(5-piperidin-1-ylmethyl-pyridin-2-yl)-[4,5′]bipyrimidinyl-6,4′-diamine]: the GI50 is less than 100 nM.

In turn, `COC(=O)c1cc(OC)c(Cl)c(Nc2ncncc2-c2cc(N)ncn2)c1Cl` [Compound 23, 3-(6-Amino-[4,5′]bipyrimidinyl-4′-ylamino)-2,4-dichloro-5-methoxy-benzoic acid methyl ester] gave a GI50 of 250 to 500 nM.

With `CCNC(=O)c1cc(OC)c(Cl)c(Nc2ncncc2-c2cc(Nc3ccc(CN4CCOCC4)cn3)ncn2)c1Cl` [Compound 24, 2,4-Dichloro-N-ethyl-5-methoxy-3-[6-(5-morpholin-4-ylmethyl-pyridin-2-ylamino)-[4,5′]bipyrimidinyl-4′-ylamino]-benzamide], the GI50 was less than 100 nM.

Turning to `CCONC(=O)c1cc(OC)c(Cl)c(Nc2ncncc2-c2cc(Nc3ccc(CN4CCOCC4)cn3)ncn2)c1Cl` [Compound 25, 2,4-Dichloro-N-ethoxy-5-methoxy-3-[6-(5-morpholin-4-ylmethyl-pyridin-2-ylamino)-[4,5′]bipyrimidinyl-4′-ylamino]-benzamide], the GI50 is less than 100 nM.
